This note sets out measurements from patent US8846698B2, “Pyrrolo[2,3-d]pyrimidine tropomysin-related kinase inhibitors” (Pfizer Limited, priority 2011, dated 2014).

The structures appear in SMILES notation.

One may read the IC50 as the concentration at which inhibition is half-maximal.

The target of this assay is TRKA (Homo sapiens (Human), UniProt P04629). Put plainly: Isolated TRK enzyme assay (HTRF KinEASE-TK), TRKA. Type of assay: biochemical. Particulars: read-out: Trka enzyme (IC50). In general terms: Time-resolved FRET reads energy transfer from a long-lived donor to a nearby acceptor.
Chain of TRKA (P04629 441-796): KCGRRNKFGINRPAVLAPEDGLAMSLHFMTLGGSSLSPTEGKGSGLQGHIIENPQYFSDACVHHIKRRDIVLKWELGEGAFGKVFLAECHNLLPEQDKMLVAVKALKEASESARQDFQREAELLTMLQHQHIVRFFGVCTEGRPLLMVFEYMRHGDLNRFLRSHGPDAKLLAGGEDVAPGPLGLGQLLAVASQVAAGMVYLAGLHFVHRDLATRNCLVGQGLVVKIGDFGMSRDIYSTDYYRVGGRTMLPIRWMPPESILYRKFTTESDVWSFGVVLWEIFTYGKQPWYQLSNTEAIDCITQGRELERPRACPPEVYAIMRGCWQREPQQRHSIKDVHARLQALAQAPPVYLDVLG
On to `CC(C)n1cc(C(=O)c2cncc(NC(=O)Cn3ncc4ccc([N+](=O)[O-])cc43)c2)c2cncnc21` [Example 123, N-{5-[(7-isopropyl-7H-pyrrolo[2,3-d]pyrimidin-5-yl)carbonyl]pyridin-3-yl}-2-(6-nitro-1H-indazol-1-yl)acetamide], for which the IC50 is 143 nM. Next, `CC(C)n1cc(C(=O)c2cncc(NC(=O)Cc3nn(C)c4ccc(Cl)cc34)c2)c2cncnc21` [Example 124, 2-(5-chloro-1-methyl-1H-indazol-3-yl)-N-{5-[(7-isopropyl-7H-pyrrolo[2,3-d]pyrimidin-5-yl)carbonyl]pyridin-3-yl}acetamide]: 244 nM; `Cc1[nH]c2ccc(F)cc2c1CC(=O)Nc1cncc(C(=O)c2cn(C(C)C)c3ncncc23)c1` [Example 125, 2-(5-fluoro-2-methyl-1H-indol-3-yl)-N-{5-[(7-isopropyl-7H-pyrrolo[2,3-d]pyrimidin-5-yl)carbonyl]pyridin-3-yl}acetamide]: 148 nM; `CC(C)n1cc(C(=O)c2cncc(NC(=O)Cc3cn4cc(Cl)ccc4n3)c2)c2cncnc21` [Example 126, 2-(6-chloroimidazo[1,2-a]pyridin-2-yl)-N-{5-[(7-isopropyl-7H-pyrrolo[2,3-d]pyrimidin-5-yl)carbonyl]pyridin-3-yl}acetamide]: 95.7 nM. To `Cc1nc2ccccc2n1CC(=O)Nc1cncc(C(=O)c2cn(C(C)C)c3ncncc23)c1` [Example 127, N-{5-[(7-isopropyl-7H-pyrrolo[2,3-d]pyrimidin-5-yl)carbonyl]pyridin-3-yl}-2-(2-methyl-1H-benzimidazol-1-yl)acetamide] belongs 1330 nM; to `CC(C)n1cc(C(=O)c2cncc(NC(=O)Cc3cn4ccccc4n3)c2)c2cncnc21` [Example 128, 2-imidazo[1,2-a]pyridin-2-yl-N-{5-[(7-isopropyl-7H-pyrrolo[2,3-d]pyrimidin-5-yl)carbonyl]pyridin-3-yl}acetamide], 206 nM. To `COc1ccc2c(ccn2CC(=O)Nc2cncc(C(=O)c3cn(C(C)C)c4ncncc34)c2)n1` [Example 129, N-{5-[(7-isopropyl-7H-pyrrolo[2,3-d]pyrimidin-5-yl)carbonyl]pyridin-3-yl}-2-(5-methoxy-1H-pyrrolo[3,2-b]pyridin-1-yl)acetamide] belongs 3860 nM; to `Cc1ccnn1CC(=O)Nc1cncc(C(=O)c2cn(C(C)C)c3ncncc23)c1` [Example 130, N-{5-[(7-isopropyl-7H-pyrrolo[2,3-d]pyrimidin-5-yl)carbonyl]pyridin-3-yl}-2-(5-methyl-1H-pyrazol-1-yl)acetamide], 284 nM. Consider `Cc1cccc2ncn(CC(=O)Nc3cncc(C(=O)c4cn(C(C)C)c5ncncc45)c3)c12` [Example 131, N-{5-[(7-isopropyl-7H-pyrrolo[2,3-d]pyrimidin-5-yl)carbonyl]pyridin-3-yl}-2-(7-methyl-1H-benzimidazol-1-yl)acetamide], for which the IC50 amounted to 831 nM. `CC(C)n1cc(C(=O)c2cncc(NC(=O)Cc3c[nH]c4ccccc34)c2)c2cncnc21` [Example 132, 2-(1H-indol-3-yl)-N-{5-[(7-isopropyl-7H-pyrrolo[2,3-d]pyrimidin-5-yl)carbonyl]pyridin-3-yl}acetamide]: the IC50 was determined as 131 nM. Next, `CC(C)n1cc(C(=O)c2cncc(NC(=O)Cn3cnc4ccccc43)c2)c2cncnc21` [Example 133, 2-(1H-benzimidazol-1-yl)-N-{5-[(7-isopropyl-7H-pyrrolo[2,3-d]pyrimidin-5-yl)carbonyl]pyridin-3-yl}acetamide]: 681 nM. Regarding `Cc1cc(CC(=O)Nc2cncc(C(=O)c3cn(C(C)C)c4ncncc34)c2)[nH]n1` [Example 134, N-{5-[(7-isopropyl-7H-pyrrolo[2,3-d]pyrimidin-5-yl)carbonyl]pyridin-3-yl}-2-(3-methyl-1H-pyrazol-5-yl)acetamide], the IC50 came out at 330 nM. To `CC(C)n1cc(C(=O)c2cncc(NC(=O)Cn3nnc4ccccc43)c2)c2cncnc21` [Example 135, 2-(1H-benzotriazol-1-yl)-N-{5-[(7-isopropyl-7H-pyrrolo[2,3-d]pyrimidin-5-yl)carbonyl]pyridin-3-yl}acetamide] belongs 312 nM; to `CC(C)n1cc(C(=O)c2cncc(NC(=O)Cc3cn(C)c4ccccc34)c2)c2cncnc21` [Example 136, N-{5-[(7-isopropyl-7H-pyrrolo[2,3-d]pyrimidin-5-yl)carbonyl]pyridin-3-yl}-2-(1-methyl-1H-indol-3-yl)acetamide], 334 nM.

As for `CC(C)n1cc(C(=O)c2cncc(NC(=O)Cc3cc(-c4ccccc4)c[nH]3)c2)c2cncnc21` [Example 137, N-{5-[(7-isopropyl-7H-pyrrolo[2,3-d]pyrimidin-5-yl)carbonyl]pyridin-3-yl}-2-(4-phenyl-1H-pyrrol-2-yl)acetamide], the IC50 amounted to 496 nM.

For `CCc1nc2cccnc2n1CC(=O)Nc1cncc(C(=O)c2cn(C(C)C)c3ncncc23)c1` [Example 138, 2-(2-ethyl-3H-imidazo[4,5-b]pyridin-3-yl)-N-{5-[(7-isopropyl-7H-pyrrolo[2,3-d]pyrimidin-5-yl)carbonyl]pyridin-3-yl}acetamide], the IC50 amounted to 8310 nM.

Take `CC(C)n1cc(C(=O)c2cncc(NC(=O)Cc3c[nH]c4ccc(Cl)cc34)c2)c2cncnc21` [Example 139, 2-(5-chloro-1H-indol-3-yl)-N-{5-[(7-isopropyl-7H-pyrrolo[2,3-d]pyrimidin-5-yl)carbonyl]pyridin-3-yl}acetamide]: the IC50 was 65.7 nM. Regarding `CC(C)n1cc(C(=O)c2cncc(NC(=O)Cc3ccn(-c4ccccc4)c3)c2)c2cncnc21` [Example 140, N-{5-[(7-isopropyl-7H-pyrrolo[2,3-d]pyrimidin-5-yl)carbonyl]pyridin-3-yl}-2-(1-phenyl-1H-pyrrol-3-yl)acetamide], the IC50 was 219 nM. Next, `Cc1ccc2[nH]cc(CC(=O)Nc3cncc(C(=O)c4cn(C(C)C)c5ncncc45)c3)c2c1` [Example 141, N-{5-[(7-isopropyl-7H-pyrrolo[2,3-d]pyrimidin-5-yl)carbonyl]pyridin-3-yl}-2-(5-methyl-1H-indol-3-yl)acetamide]: 59.5 nM. Next, `CCc1nc2ccccc2n1CC(=O)Nc1cncc(C(=O)c2cn(C(C)C)c3ncncc23)c1` [Example 142, 2-(2-ethyl-1H-benzimidazol-1-yl)-N-{5-[(7-isopropyl-7H-pyrrolo[2,3-d]pyrimidin-5-yl)carbonyl]pyridin-3-yl}acetamide]: 1380 nM; `CC(C)n1cc(C(=O)c2cncc(NC(=O)Cc3cn4cccnc4n3)c2)c2cncnc21` [Example 143, 2-imidazo[1,2-a]pyrimidin-2-yl-N-{5-[(7-isopropyl-7H-pyrrolo[2,3-d]pyrimidin-5-yl)carbonyl]pyridin-3-yl}acetamide]: 4730 nM; `CC(C)n1cc(C(=O)c2cncc(NC(=O)Cc3n[nH]c4ccccc34)c2)c2cncnc21` [Example 144, 2-(1H-indazol-3-yl)-N-{5-[(7-isopropyl-7H-pyrrolo[2,3-d]pyrimidin-5-yl)carbonyl]pyridin-3-yl}acetamide]: 71.5 nM. To `COc1cc(F)cc2ccn(CC(=O)Nc3cncc(C(=O)c4cn(C(C)C)c5ncncc45)c3)c12` [Example 145, 2-(5-fluoro-7-methoxy-1H-indol-1-yl)-N-{5-[(7-isopropyl-7H-pyrrolo[2,3-d]pyrimidin-5-yl)carbonyl]pyridin-3-yl}acetamide] belongs 37.4 nM.

Turning to `CC(C)n1cc(C(=O)c2cncc(NC(=O)Cc3cn(Cc4ccccc4)nn3)c2)c2cncnc21` [Example 146, 2-(1-benzyl-1H-1,2,3-triazol-4-yl)-N-{5-[(7-isopropyl-7H-pyrrolo[2,3-d]pyrimidin-5-yl)carbonyl]pyridin-3-yl}acetamide], the IC50 was 573 nM. Regarding `CC(C)n1cc(C(=O)c2cncc(NC(=O)Cc3nn(C)c4cc(Cl)ccc34)c2)c2cncnc21` [Example 147, 2-(6-chloro-1-methyl-1H-indazol-3-yl)-N-{5-[(7-isopropyl-7H-pyrrolo[2,3-d]pyrimidin-5-yl)carbonyl]pyridin-3-yl}acetamide], the IC50 was found to be 76.4 nM. To `CC(C)n1cc(C(=O)c2cncc(NC(=O)Cc3c[nH]c4c(Cl)cccc34)c2)c2cncnc21` [Example 148, 2-(7-chloro-1H-indol-3-yl)-N-{5-[(7-isopropyl-7H-pyrrolo[2,3-d]pyrimidin-5-yl)carbonyl]pyridin-3-yl}acetamide] belongs 93.4 nM; to `Cc1c(-c2ccccc2)cnn1CC(=O)Nc1cncc(C(=O)c2cn(C(C)C)c3ncncc23)c1` [Example 149, N-{5-[(7-isopropyl-7H-pyrrolo[2,3-d]pyrimidin-5-yl)carbonyl]pyridin-3-yl}-2-(5-methyl-4-phenyl-1H-pyrazol-1-yl)acetamide], 3570 nM. Next, `CC(C)n1cc(C(=O)c2cncc(NC(=O)Cc3cncc(Br)c3)c2)c2cncnc21` [Example 150, 2-(5-bromopyridin-3-yl)-N-{5-[(7-isopropyl-7H-pyrrolo[2,3-d]pyrimidin-5-yl)carbonyl]pyridin-3-yl}acetamide]: 51 nM; `CC(C)n1cc(C(=O)c2cncc(NC(=O)Cc3ccccn3)c2)c2cncnc21` [Example 151, N-{5-[(7-isopropyl-7H-pyrrolo[2,3-d]pyrimidin-5-yl)carbonyl]pyridin-3-yl}-2-pyridin-2-ylacetamide]: 232 nM. As to `COc1ccc(CC(=O)Nc2cncc(C(=O)c3cn(C(C)C)c4ncncc34)c2)cn1` [Example 152, N-{5-[(7-isopropyl-7H-pyrrolo[2,3-d]pyrimidin-5-yl)carbonyl]pyridin-3-yl}-2-(6-methoxypyridin-3-yl)acetamide], the IC50 worked out at 82.5 nM. With `Cc1ccc2[nH]c(C)c(CC(=O)Nc3cncc(C(=O)c4cn(C(C)C)c5ncncc45)c3)c2c1` [Example 153, 2-(2,5-dimethyl-1H-indol-3-yl)-N-{5-[(7-isopropyl-7H-pyrrolo[2,3-d]pyrimidin-5-yl)carbonyl]pyridin-3-yl}acetamide], the IC50 came to 71.5 nM.

On to `Cc1ccc(CC(=O)Nc2cncc(C(=O)c3cn(C(C)C)c4ncncc34)c2)cn1` [Example 154, N-{5-[(7-isopropyl-7H-pyrrolo[2,3-d]pyrimidin-5-yl)carbonyl]pyridin-3-yl}-2-(6-methylpyridin-3-yl)acetamide], for which the IC50 was found to be 94.1 nM.
